Measured values as given in ChEMBL document CHEMBL1201862, “PubChem BioAssay data set” (2004).
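How tested: cells in 96-well plates exposed to compound for 48 hours at five concentrations. GI50 marks 50% less growth.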 Activity calls are given as the source filed them. No stated cut-off is given here; in the data, active = GI50 up to about 1.1 µM and inactive = higher.

Assays:
Assay in all cases: growth of human tumour cells (NCI), 48 h
A498 = test system: A498
BT-549 = test system: BT-549
CCRF-CEM = test system: CCRF-CEM
COLO 205 = test system: COLO 205
DU-145 = test system: DU-145
EKVX = test system: EKVX
HOP-62 = test system: HOP-62
Hs-578T = test system: Hs-578T
IGROV-1 = test system: IGROV-1
LOX IMVI = test system: LOX IMVI
MCF7 = test system: MCF7
MDA-MB-435 = test system: MDA-MB-435
MDA-N = test system: MDA-N
OVCAR-5 = test system: OVCAR-5
RPMI-8226 = test system: RPMI-8226
SF-295 = test system: SF-295
SF-539 = test system: SF-539
SNB-75 = test system: SNB-75
SR = test system: SR
CAKI-1 = test system: CAKI-1

Cc1nc2ccccc2c(=O)n1NC(=O)Cc1ccccc1
GI50 (A498): > 100 µM (inactive)
GI50 (BT-549): > 100 µM (inactive)
GI50 (CCRF-CEM): > 100 µM (inactive)
GI50 (COLO 205): > 100 µM (inactive)
GI50 (DU-145): > 100 µM (inactive)
GI50 (EKVX): > 100 µM (inactive)
GI50 (HOP-62): > 100 µM (inactive)
GI50 (Hs-578T): > 100 µM (inactive)
GI50 (IGROV-1): > 100 µM (inactive)
GI50 (LOX IMVI): > 100 µM (inactive)
GI50 (MCF7): > 100 µM (inactive)
GI50 (MDA-MB-435): > 100 µM (inactive)
GI50 (MDA-N): > 100 µM (inactive)
GI50 (OVCAR-5): > 100 µM (inactive)
GI50 (RPMI-8226): > 100 µM (inactive)
GI50 (SF-295): > 100 µM (inactive)
GI50 (SF-539): > 100 µM (inactive)
GI50 (SNB-75): 31 µM (inactive)
GI50 (SR): > 100 µM (inactive)

COc1ccc2c(c1)CCc1c-2n(CCN2CCCCC2)c2ccc(OC)cc12
GI50 (A498): > 100 µM (inactive)
GI50 (BT-549): > 100 µM (inactive)
GI50 (CAKI-1): > 100 µM (inactive)
GI50 (CCRF-CEM): > 100 µM (inactive)
GI50 (COLO 205): > 100 µM (inactive)
GI50 (DU-145): > 100 µM (inactive)
GI50 (EKVX): > 100 µM (inactive)
GI50 (HOP-62): > 100 µM (inactive)
GI50 (Hs-578T): > 100 µM (inactive)
GI50 (IGROV-1): > 100 µM (inactive)
GI50 (LOX IMVI): > 100 µM (inactive)
GI50 (MCF7): > 100 µM (inactive)
GI50 (MDA-MB-435): > 100 µM (inactive)
GI50 (MDA-N): > 100 µM (inactive)
GI50 (OVCAR-5): > 100 µM (inactive)
GI50 (RPMI-8226): > 100 µM (inactive)
GI50 (SF-295): > 100 µM (inactive)
GI50 (SNB-75): > 100 µM (inactive)
GI50 (SR): > 100 µM (inactive)

CSc1c(C#N)c(O)n(-c2ccc(Cl)cc2)c(=O)c1C#N
GI50 (A498): 45.2 µM (inactive)
GI50 (BT-549): > 100 µM (inactive)
GI50 (CAKI-1): 49.4 µM (inactive)
GI50 (COLO 205): > 100 µM (inactive)
GI50 (DU-145): > 100 µM (inactive)
GI50 (EKVX): > 100 µM (inactive)
GI50 (Hs-578T): > 100 µM (inactive)
GI50 (IGROV-1): > 100 µM (inactive)
GI50 (LOX IMVI): 14 µM (inactive)
GI50 (MCF7): 64.6 µM (inactive)
GI50 (MDA-MB-435): > 100 µM (inactive)
GI50 (MDA-N): > 100 µM (inactive)
GI50 (OVCAR-5): > 100 µM (inactive)
GI50 (RPMI-8226): 39.5 µM (inactive)
GI50 (SF-539): > 100 µM (inactive)
GI50 (SNB-75): > 100 µM (inactive)
GI50 (SR): > 100 µM (inactive)

C=C(CN1CC2C[C@](C(=O)OC)(c3cc4ccccc4[nH]3)C1C(OC)C2OC)S(=O)(=O)c1ccccc1 (stereo not given in full)
GI50 (BT-549): 3.85 µM (inactive)
GI50 (CAKI-1): 3.71 µM (inactive)
GI50 (CCRF-CEM): 2.24 µM (inactive)
GI50 (COLO 205): 2.54 µM (inactive)
GI50 (DU-145): 4 µM (inactive)
GI50 (EKVX): 3.3 µM (inactive)
GI50 (HOP-62): 4.78 µM (inactive)
GI50 (Hs-578T): 2.5 µM (inactive)
GI50 (IGROV-1): 2.6 µM (inactive)
GI50 (LOX IMVI): 1.85 µM (inactive)
GI50 (MCF7): 3.81 µM (inactive)
GI50 (MDA-MB-435): 2.29 µM (inactive)
GI50 (MDA-N): 2.69 µM (inactive)
GI50 (OVCAR-5): 3.71 µM (inactive)
GI50 (RPMI-8226): 0.245 µM (active)
GI50 (SF-295): 4.65 µM (inactive)
GI50 (SF-539): 4.9 µM (inactive)
GI50 (SNB-75): 2.74 µM (inactive)
GI50 (SR): 2.7 µM (inactive)

CN(C)Cc1cc(C(=O)/C=C/c2ccc([N+](=O)[O-])cc2)cc(CN(C)C)c1O
GI50 (A498): 11 µM (inactive)
GI50 (BT-549): 13.6 µM (inactive)
GI50 (CCRF-CEM): 3.3 µM (inactive)
GI50 (COLO 205): 1.99 µM (inactive)
GI50 (DU-145): 11 µM (inactive)
GI50 (EKVX): 12.8 µM (inactive)
GI50 (HOP-62): 3.72 µM (inactive)
GI50 (Hs-578T): 18.8 µM (inactive)
GI50 (IGROV-1): 12.2 µM (inactive)
GI50 (LOX IMVI): 2.24 µM (inactive)
GI50 (MCF7): 13.3 µM (inactive)
GI50 (MDA-MB-435): 7.1 µM (inactive)
GI50 (MDA-N): 11.7 µM (inactive)
GI50 (OVCAR-5): 16.6 µM (inactive)
GI50 (RPMI-8226): 2.43 µM (inactive)
GI50 (SF-295): 22.3 µM (inactive)
GI50 (SF-539): 18.5 µM (inactive)
GI50 (SNB-75): 2.97 µM (inactive)
GI50 (SR): 4.12 µM (inactive)

C[N+]1(C)CC[N+](C)(C)[BH-]1C(O)O
GI50 (A498): > 100 µM (inactive)
GI50 (BT-549): > 100 µM (inactive)
GI50 (CAKI-1): > 100 µM (inactive)
GI50 (CCRF-CEM): > 100 µM (inactive)
GI50 (COLO 205): > 100 µM (inactive)
GI50 (DU-145): > 100 µM (inactive)
GI50 (EKVX): > 100 µM (inactive)
GI50 (HOP-62): > 100 µM (inactive)
GI50 (Hs-578T): > 100 µM (inactive)
GI50 (IGROV-1): > 100 µM (inactive)
GI50 (LOX IMVI): > 100 µM (inactive)
GI50 (MCF7): > 100 µM (inactive)
GI50 (MDA-MB-435): > 100 µM (inactive)
GI50 (MDA-N): > 100 µM (inactive)
GI50 (OVCAR-5): > 100 µM (inactive)
GI50 (SF-295): > 100 µM (inactive)
GI50 (SF-539): > 100 µM (inactive)
GI50 (SNB-75): 0.376 µM (active)
GI50 (SR): > 100 µM (inactive)

CNC(=O)C1(N)c2ccccc2C=Cc2ccccc21
GI50 (A498): > 100 µM (inactive)
GI50 (BT-549): > 100 µM (inactive)
GI50 (CAKI-1): > 100 µM (inactive)
GI50 (CCRF-CEM): > 100 µM (inactive)
GI50 (COLO 205): > 100 µM (inactive)
GI50 (DU-145): > 100 µM (inactive)
GI50 (EKVX): > 100 µM (inactive)
GI50 (HOP-62): > 100 µM (inactive)
GI50 (Hs-578T): > 100 µM (inactive)
GI50 (IGROV-1): > 100 µM (inactive)
GI50 (LOX IMVI): > 100 µM (inactive)
GI50 (MCF7): > 100 µM (inactive)
GI50 (MDA-MB-435): > 100 µM (inactive)
GI50 (MDA-N): > 100 µM (inactive)
GI50 (OVCAR-5): > 100 µM (inactive)
GI50 (RPMI-8226): > 100 µM (inactive)
GI50 (SF-295): > 100 µM (inactive)
GI50 (SF-539): > 100 µM (inactive)
GI50 (SR): > 100 µM (inactive)

CC1(C)CC(=O)c2c(nc3c4c([nH]c(-c5ccc(Br)cc5)c24)CC(C)(C)C3)C1
GI50 (A498): 13.6 µM (inactive)
GI50 (BT-549): 35.8 µM (inactive)
GI50 (CAKI-1): 50.4 µM (inactive)
GI50 (CCRF-CEM): 16.9 µM (inactive)
GI50 (COLO 205): 19.8 µM (inactive)
GI50 (DU-145): 65.3 µM (inactive)
GI50 (EKVX): 50.2 µM (inactive)
GI50 (HOP-62): > 100 µM (inactive)
GI50 (Hs-578T): 33 µM (inactive)
GI50 (LOX IMVI): 30.2 µM (inactive)
GI50 (MCF7): 33 µM (inactive)
GI50 (MDA-MB-435): 29.7 µM (inactive)
GI50 (MDA-N): 40.3 µM (inactive)
GI50 (OVCAR-5): 84.9 µM (inactive)
GI50 (SF-295): 21.3 µM (inactive)
GI50 (SF-539): 76.6 µM (inactive)
GI50 (SNB-75): 27.9 µM (inactive)
GI50 (SR): 8.65 µM (inactive)

COC1(c2ccccc2)N=C(S)NN=C1c1ccccc1 (stereo not given)
GI50 (A498): > 100 µM (inactive)
GI50 (BT-549): 28.2 µM (inactive)
GI50 (CAKI-1): 73.8 µM (inactive)
GI50 (CCRF-CEM): 28.2 µM (inactive)
GI50 (COLO 205): 21.9 µM (inactive)
GI50 (DU-145): 32.8 µM (inactive)
GI50 (EKVX): 89.9 µM (inactive)
GI50 (HOP-62): 44.8 µM (inactive)
GI50 (Hs-578T): 42.4 µM (inactive)
GI50 (IGROV-1): 34.8 µM (inactive)
GI50 (LOX IMVI): 36.1 µM (inactive)
GI50 (MCF7): 38 µM (inactive)
GI50 (MDA-MB-435): 19.5 µM (inactive)
GI50 (MDA-N): 21.5 µM (inactive)
GI50 (OVCAR-5): 78.2 µM (inactive)
GI50 (RPMI-8226): 38.9 µM (inactive)
GI50 (SF-295): 30.5 µM (inactive)
GI50 (SNB-75): 38.5 µM (inactive)
GI50 (SR): 29.4 µM (inactive)

S=C(CSc1ccccc1)Nc1cccc2ccccc12
GI50 (A498): 23.1 µM (inactive)
GI50 (BT-549): 51.6 µM (inactive)
GI50 (CAKI-1): 59 µM (inactive)
GI50 (COLO 205): 16.4 µM (inactive)
GI50 (DU-145): > 100 µM (inactive)
GI50 (EKVX): 58.9 µM (inactive)
GI50 (HOP-62): 77.3 µM (inactive)
GI50 (Hs-578T): 77.1 µM (inactive)
GI50 (IGROV-1): 72.8 µM (inactive)
GI50 (LOX IMVI): 50.6 µM (inactive)
GI50 (MCF7): 33.8 µM (inactive)
GI50 (MDA-MB-435): 34.1 µM (inactive)
GI50 (MDA-N): 40.7 µM (inactive)
GI50 (OVCAR-5): 72.1 µM (inactive)
GI50 (RPMI-8226): 35.6 µM (inactive)
GI50 (SF-295): 23.8 µM (inactive)
GI50 (SF-539): 28.4 µM (inactive)
GI50 (SNB-75): > 100 µM (inactive)
GI50 (SR): 22.5 µM (inactive)

C=CCc1cccc2cc(C(=O)Nc3ccccc3)c(=N)oc12
GI50 (A498): 23.2 µM (inactive)
GI50 (BT-549): > 100 µM (inactive)
GI50 (CAKI-1): 63.2 µM (inactive)
GI50 (CCRF-CEM): > 100 µM (inactive)
GI50 (COLO 205): > 100 µM (inactive)
GI50 (DU-145): > 100 µM (inactive)
GI50 (HOP-62): > 100 µM (inactive)
GI50 (Hs-578T): 37.6 µM (inactive)
GI50 (IGROV-1): 33.2 µM (inactive)
GI50 (LOX IMVI): > 100 µM (inactive)
GI50 (MCF7): 7.11 µM (inactive)
GI50 (MDA-MB-435): 27.9 µM (inactive)
GI50 (MDA-N): 70.6 µM (inactive)
GI50 (OVCAR-5): 38.8 µM (inactive)
GI50 (RPMI-8226): > 100 µM (inactive)
GI50 (SF-539): 28.2 µM (inactive)
GI50 (SNB-75): 52.4 µM (inactive)
GI50 (SR): > 100 µM (inactive)
